Data reported in PubChem BioAssay AID270 (DTP/NCI, 2004).
Records with an inconclusive call do not appear.

Tested on: BDF1 mice, s.c. Lewis lung carcinoma, T/C %
Assay: NCI In Vivo Anticancer Drug Screen. Data for tumor model Lewis Lung Carcinoma (subcutaneous) in B6D2F1 (BDF1) mice
Procedure, shortened: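 Transplanted tumors grown in mice; compound vs vehicle dosing; endpoint survival or tumor size; ratio T/C.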

With `CNCc1ccccc1` the T/C (endpoint: mean tumor weight, dose: 25.0 mg/kg/injection, schedule: Q01DX011 (ip), vehicle: carboxymethylcellulose (CMC), higher = larger tumour) was 105 % of control, the T/C (endpoint: mean tumor weight, dose: 50.0 mg/kg/injection, schedule: Q01DX011 (ip), vehicle: carboxymethylcellulose (CMC), higher = larger tumour) was 124 % of control and the T/C (endpoint: mean tumor weight, dose: 100.0 mg/kg/injection, schedule: Q01DX011 (ip), vehicle: carboxymethylcellulose (CMC), higher = larger tumour) was 65 % of control.
`COc1ccc(NC(=O)N(CCCl)N=O)cc1OC` was tested, and the T/C (endpoint: median survival time, dose: 1.56 mg/kg/injection, schedule: Q01DX009 (ip), vehicle: Klucel (hydroxypropylcellulose) (HPC), higher = longer survival) was 97 % of control, the T/C (endpoint: median survival time, dose: 3.12 mg/kg/injection, schedule: Q01DX009 (ip), vehicle: Klucel (hydroxypropylcellulose) (HPC), higher = longer survival) was 100 % of control and the T/C (endpoint: median survival time, dose: 6.25 mg/kg/injection, schedule: Q01DX009 (ip), vehicle: Klucel (hydroxypropylcellulose) (HPC), higher = longer survival) was 106 % of control. The T/C (endpoint: median survival time, dose: 12.5 mg/kg/injection, schedule: Q01DX009 (ip), vehicle: Klucel (hydroxypropylcellulose) (HPC), higher = longer survival) was 101 % of control and the T/C (endpoint: median survival time, dose: 25.0 mg/kg/injection, schedule: Q01DX009 (ip), vehicle: Klucel (hydroxypropylcellulose) (HPC), higher = longer survival) was 107 % of control.
With `NNc1nncc2ccccc12` the T/C (endpoint: mean tumor weight, dose: 13.0 mg/kg/injection, schedule: Q01DX011 (ip), vehicle: carboxymethylcellulose (CMC), higher = larger tumour) was 111 % of control, the T/C (endpoint: mean tumor weight, dose: 20.0 mg/kg/injection, schedule: Q01DX011 (ip), vehicle: carboxymethylcellulose (CMC), higher = larger tumour) was 87 % of control and the T/C (endpoint: mean tumor weight, dose: 30.0 mg/kg/injection, schedule: Q01DX011 (ip), vehicle: carboxymethylcellulose (CMC), higher = larger tumour) was 110 % of control.
With `Cc1ccc2nc(-c3ccc(N=Cc4ccccc4O)cc3)sc2c1` the T/C (endpoint: median survival time, dose: 200.0 mg/kg/injection, schedule: Q01DX009 (ip), vehicle: olive oil, sesame oil, peanut oil, higher = longer survival) was 87 % of control.
In the case of `Oc1ccc(Nc2ccnc3cc(Cl)ccc23)cc1CN(CCCl)CCCl`, the T/C (endpoint: median survival time, dose: 2.5 mg/kg/injection, schedule: Q01DX009 (ip), vehicle: saline, higher = longer survival) was 108 % of control.
With `CCCCOP(=S)(N1CC1)N1CC1` the T/C (endpoint: mean tumor weight, dose: 2.5 mg/kg/injection, schedule: Q01DX011 (ip), vehicle: saline, higher = larger tumour) was 79 % of control, the T/C (endpoint: mean tumor weight, dose: 5.0 mg/kg/injection, schedule: Q01DX011 (ip), vehicle: saline, higher = larger tumour) was 52 % of control and the T/C (endpoint: mean tumor weight, dose: 10.0 mg/kg/injection, schedule: Q01DX011 (ip), vehicle: saline, higher = larger tumour) was 23 % of control.
`CC(=O)OC1CC(OC2C(O)CC(OC3C(O)CC(OC4CCC5(C)C(CCC6C5CCC5(C)C(C7=CC(=O)OC7)CCC65O)C4)OC3C)OC2C)OC(C)C1OC1OC(CO)C(O)C(O)C1O` (configuration not stated) was tested, and the T/C (endpoint: mean tumor weight, dose: 1.2 mg/kg/injection, schedule: Q01DX011 (ip), vehicle: carboxymethylcellulose (CMC), higher = larger tumour) was 55 % of control, the T/C (endpoint: mean tumor weight, dose: 2.5 mg/kg/injection, schedule: Q01DX011 (ip), vehicle: carboxymethylcellulose (CMC), higher = larger tumour) was 60 % of control and the T/C (endpoint: mean tumor weight, dose: 5.0 mg/kg/injection, schedule: Q01DX011 (ip), vehicle: carboxymethylcellulose (CMC), higher = larger tumour) was 32 % of control.
For `C=C(C)[C@H]1Cc2c(ccc3c2O[C@@H]2COc4cc(OC)c(OC)cc4[C@@H]2C3=O)O1`, the T/C (endpoint: mean tumor weight, dose: 0.25 mg/kg/injection, schedule: Q01DX011 (ip), vehicle: water, higher = larger tumour) was 76 % of control, the T/C (endpoint: mean tumor weight, dose: 0.5 mg/kg/injection, schedule: Q01DX011 (ip), vehicle: water, higher = larger tumour) was 65 % of control and the T/C (endpoint: mean tumor weight, dose: 1.0 mg/kg/injection, schedule: Q01DX011 (ip), vehicle: water, higher = larger tumour) was 60 % of control.
In the case of `CC1CCCC(NC(=O)N(CCCl)N=O)C1` (configuration not stated), the T/C (endpoint: median survival time, dose: 20.0 mg/kg/injection, schedule: Q01DX001 (ip), vehicle: gum acacia, higher = longer survival) was 110 % of control, the T/C (endpoint: median survival time, dose: 30.0 mg/kg/injection, schedule: Q01DX001 (ip), vehicle: gum acacia, higher = longer survival) was 110 % of control and the T/C (endpoint: median survival time, dose: 43.0 mg/kg/injection, schedule: Q01DX001 (ip), vehicle: gum acacia, higher = longer survival) was 92 % of control. The T/C (endpoint: median survival time, dose: 64.0 mg/kg/injection, schedule: Q01DX001 (ip), vehicle: gum acacia, higher = longer survival) was 90 % of control and the T/C (endpoint: median survival time, dose: 96.0 mg/kg/injection, schedule: Q01DX001 (ip), vehicle: gum acacia, higher = longer survival) was 155 % of control.
With `C=C1C(C)C2C(Cc3ccccc3)NC(=O)C23C(OC(C)=O)C=CC(C)(O)C(=O)C(C)C/C=C/C3C1O` (configuration not stated) the T/C (endpoint: median survival time, dose: 0.31 mg/kg/injection, schedule: Q01DX009 (ip), vehicle: Klucel (hydroxypropylcellulose) (HPC), higher = longer survival) was 121 % of control, the T/C (endpoint: median survival time, dose: 0.62 mg/kg/injection, schedule: Q01DX009 (ip), vehicle: Klucel (hydroxypropylcellulose) (HPC), higher = longer survival) was 124 % of control and the T/C (endpoint: median survival time, dose: 1.25 mg/kg/injection, schedule: Q01DX009 (ip), vehicle: Klucel (hydroxypropylcellulose) (HPC), higher = longer survival) was 110 % of control. For the same compound, the T/C (endpoint: median survival time, dose: 2.5 mg/kg/injection, schedule: Q01DX009 (ip), vehicle: Klucel (hydroxypropylcellulose) (HPC), higher = longer survival) was 118 % of control and the T/C (endpoint: median survival time, dose: 5.0 mg/kg/injection, schedule: Q01DX009 (ip), vehicle: Klucel (hydroxypropylcellulose) (HPC), higher = longer survival) was 109 % of control.
